The conditions of data set [1]: mouse, in vivo.
Protocol: The topical formulations of 2% PALA/50% acetone/10% glycerol, 5% imiquimod (IMQ), 5% 5-FU (5-FU), vehicle (50% acetone/10% glycerol) control, and Aquaphor were applied (~0.05 g/mouse) daily to the dorsal skin of SKH1-Elite female mice (8 weeks of age; n=5/group) for 7 days. […] Mice were monitored daily for weight change, skin appearance, and signs of distress. […] At harvest, spleen weights and colon lengths were measured.
Data set [2] is described as follows: In vitro diffusion test (Franz cells). Format: in vitro ADME. As to conditions: PALA 50 mg/g, 37° C., PBS pH 7.4. The method, then:
All the formulations were prepared by accurately weighing 50 mg PALA in a 4 mL glass vial. The vial was stirred at RT until a clear solution was obtained. Exception for poloxamers P407 20% w/w and P188 at 40% w/w where the PALA solubilisation was performed by stirring the vial in an ice bath (to prevent gelling which occurred at RT).
In vitro diffusion test (Franz cells, Copley) was performed to mimicking in-vivo conditions of PALA (CMI-34-1) transfer from the formulation through the skin. The test was performed in sink conditions. 100 μL of PALA (CMI-34-1)-loaded hydrogels or bi-gel (containing 5 mg of API) were added to the donor chamber of the Franz cells. 7 mL of PBS pH 7.4 was added to the receptor chamber. The chambers were separated by a Strat-M Membrane (Transdermal Diffusion Test Model, Merck) of 25 mm diameter. The Franz cells were incubated at 37° C. in an appropriate heating block and under stirring at 450 rpm. At selected time points (15, 30, 60, 120, 180, and 1440 minutes), 100 μL of samples was withdrawn from the receptor chamber and analysed by HPLC for drug release. The same volume was replaced with fresh PBS buffer pre-heated at 37° C.

Data set [3] relates to normal human dermal fibroblasts. Briefly: PALA stimulation of normal human dermal fibroblasts (bactericidal activity against MRSA, antimicrobial peptides). Format: cell-based. As to conditions: cells stimulated for 16 h with PALA. Here is the method:
A. Bactericidal activity of normal human dermal fibroblasts stimulated by PALA treatment. Cells stimulated for 16 h with the indicated concentration of PALA. Conditioned supernatants added to log phase cultures of methicillin-resistant Staphylococcus aureus (MRSA) for 2 h and viable bacterial determined by selective plating. Mean±SD graphed. B. PALA-stimulated production of antimicrobial peptides in normal human dermal fibroblasts. Cells were stimulated as in A. and supernatants assayed by ELISA for human β-defensin 2 (HBD2) and human β-defensin 3 (HBD3). Mean±SD graphed. C. […] Cell lysates from the cells shown in A. were assayed for their ability to catalyze the formation of carbamyl aspartate (CA) in vitro. Percent change in CA levels graphed; mean±SD. […] D. Average number of tumors per mouse at the end of the treatment period (mean±SEM graphed). D. Mice treated for 10 weeks with vehicle (Aquaphor), 1%, 2%, or 5% PALA in Aquaphor. E. Mice treated for 4 weeks with vehicle (AP0536/29/02), 2% (w/w) PALA (AP0536/29/02), or 4% (w/w) PALA (AP0536/29/02).

The target of data set [4] is aspartate transcarbamylase (Escherichia coli, UniProt P0A786). As to conditions: transition-state analog inhibitor; cited from earlier work.
Sequence of aspartate transcarbamylase (P0A786 2-311): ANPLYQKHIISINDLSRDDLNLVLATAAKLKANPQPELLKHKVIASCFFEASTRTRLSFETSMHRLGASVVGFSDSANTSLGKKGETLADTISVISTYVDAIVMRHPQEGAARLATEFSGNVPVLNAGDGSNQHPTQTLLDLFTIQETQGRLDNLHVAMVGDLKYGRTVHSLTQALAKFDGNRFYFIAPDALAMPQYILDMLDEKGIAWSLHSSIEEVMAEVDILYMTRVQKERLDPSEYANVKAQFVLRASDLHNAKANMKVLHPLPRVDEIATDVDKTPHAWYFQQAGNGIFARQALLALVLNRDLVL
In data set [5] the test system is chemical carcinogen-induced skin cancer. Briefly: Chemical carcinogen (DMBA/TPA)-induced skin cancer model, C57BL/6. Format: in vivo, C57BL/6 female mice. As to conditions: 2% (w/v) PALA/Aquaphor, topical, 4 weeks. The text has this: Means±SEM, n=5-6/group. Significance determined by 2-way ANOVA
For data set [6] the test system is unchanged. As to conditions: 2% (w/v) PALA in 50% acetone/10% glycerol, topical, 4 weeks. The method, then:
SKH1-Elite female mice were treated topically with DMBA for 2 weeks and then treated topically with TPA thrice a week for 8 weeks to induce skin cancer. Mice were then randomized into treatment groups and treated topically with vehicle (50% acetone/10% glycerol) or 2% (w/v) PALA for 4 weeks. A. Quantitation of mean change in tumor burden per mouse during the treatment period as a percentage of the tumor number on week 9. B. Weight change during the treatment period presented as percentage of baseline weight. C. Levels of the liver and systemic inflammation marker serum amyloid A (SAA) at endpoint. D. Measurements of colon length at endpoint as a gross measure of intestinal pathology. Means±SEM, n=8-9/group. Significance determined by 2-way ANOVA with Sidak's multiple comparisons test or unpaired […] t-test. All p values <0.05 are shown on the graphs.

A short description of data set [7]: Toxicity markers in UVB-tumor-bearing mice under topical treatment (weight, SAA, colon length, fecal LCN2).
Protocol: Serum amyloid A levels were measured in plasma samples using the Mouse SAA ELISA kit (E-90SAA, Immunology Consultants Laboratory, Inc.) according to manufacturer's instructions. Lipocalin-2 (LCN2) was quantified from pre-weighed stool samples homogenized in 0.5 mL PBS using the Mouse Lipocalin-2/NGAL DuoSet ELISA (DY1857) and DuoSet Ancillary Reagent Kit 2 (DY008, R&D Systems).
In data set [8] the test system is MOC-1 squamous cell carcinoma cells. Briefly: Oral squamous cell carcinoma orthotopic xenograft (tongue). Format: in vivo, C57Bl/6 mice. As to conditions: 2% (w/w) PALA (AP0536/29/02), tongue treated topically 5×/week. The method, then: FIG. 18: Tumor growth of oral squamous cell carcinoma orthotopic xenografts is retarded by topical PALA treatment. C57Bl/6 mice (males and females; n=6/group) were injected with MOC-1 squamous cell carcinoma cells in the tongue. Once palpable tumors formed, mouse tongues were treated topically 5×/week with vehicle (AP0536/29/02) or 2% (w/w) PALA (AP0536/29/02). Tumor volume was measured by caliper every 2-3 days. Data are graphed as mean±SEM. Significant differences were determined by Mixed-effects Model (REML) with Sidak's multiple comparison test. *p<0.05, ****p<0.0001.

Where two headings read alike, the source gives them in different places.

Take `O=C(O)CC(NC(=O)CP(=O)(O)O)C(=O)O` [PALA, N-phosphonacetyl-L-aspartate]: in data set [1], the “SAA levels on day 7” value is “no changes”, the “colon length / gross intestinal pathology on day 7” value is given as “no changes”, the “skin histology on day 7” value is “no changes” and the “skin irritation apparent (day)” value is “no skin irritation”. Besides, in data set [1], the “spleen weight on day 7” value is recorded as “no changes”. The “PALA permeated / released after 24 hours” value in data set [2] is recorded as ~ 0.3%. The “shape of dose-response curve (bactericidal activity, HBD2, HBD3)” value in data set [3] is “U-shaped dose-response curve”. Also, the “potency as inhibitor of aspartate transcarbamylase” value in data set [4] is on record as “nanomolar potency”. Besides, in data set [5], the “change in tumor burden” value is reported as “effective in reducing tumor burden”. Moreover, in data set [6], the “change in tumor burden” value is given as “trends of efficacy in reducing tumor burden”. For the same compound, the “skin irritation or weight loss” value in data set [7] (1, 2 or 5% (w/v) PALA in 50% acetone/10% glycerol, daily topical, 10 weeks) is listed as “no apparent skin irritation or weight loss”. Besides, the “circulating levels of serum amyloid A (SAA) at endpoint” value in data set [7] (1, 2 or 5% (w/v) PALA vs vehicle, daily topical, 10 weeks, trends of higher SAA at 1% and 5%) is “No significant differences”. The “gross colon pathology and colon lengths at harvest” value in data set [7] (1, 2 or 5% (w/v) PALA, daily topical, 10 weeks) is reported as “None of the mice had any apparent gross colon pathology or significant differences in colon lengths”. The “change in weight from the start of treatment” value in data set [7] (2% (w/w) PALA (AP0536/29/02) vs 5% 5-FU and 5% IMQ, daily, 4 weeks) is given as “maintain weight is better than 5-FU or IMQ treated mice”. In data set [7] (2% PALA, daily topical, 10 weeks), the “weight, SAA levels, gross intestinal pathology, LCN2 levels vs vehicle” value is “no significant differences”. Moreover, in data set [7] (5% PALA, daily topical, 10 weeks, vehicle 18.1±6.0, p=0.032), the “fecal lipocalin-2 (LCN2) at endpoint” value was 186.8±121.1. The “concentration up to which topical PALA is well tolerated” value in data set [7] (10 weeks of daily treatment) is given as “up to 5 % (w/v)”. In addition, the “tumor growth (tumor volume)” value in data set [8] is “retarded”.
